Measurements from paper PMC6269819, “Evaluation of the Biological Activity of Naturally Occurring 5,8-Dihydroxycoumarin” (Molecules, 2013).
Marks after values point to notes of the source that are not given here.

Assays:
[1] = Total phenolic compounds (TPC), Folin-Ciocalteu method
Method: The content of TPC was determined by the Folin–Ciocalteu method. Calibration curve was prepared by using 1 mL reference gallic acid solutions in ethanol (0.025, 0.075, 0.100, 0.175 and 0.350 mg/mL), which were mixed with 5 mL of a standard Folin-Ciocalteu reagent and diluted with distilled water (1:10) and 4 mL of 7.5% sodium carbonate solution in distilled water. The absorption was read after 30 min at 765 nm. The concentration of TPC was expressed in mg of gallic acid equivalents (GAE) per 1 g. The TPC was calculated by the following formula: C = c × V/m (2) where C is the concentration of gallic acid, determined form the calibration curve (mg/mL); V is the volume of 5,8-DHC solution (100 mL); m is the weight of 5,8-DHC (g).

[2] = system: Drosophila melanogaster wing cells; assay: Somatic mutation and recombination test (SMART), wing spot test; assay type: in vivo
Method: The basic procedures for the D. melanogaster somatic mutation and recombination test (SMART) were performed according to Graf and co-workers. Two D. melanogaster strains (kindly provided by Dr. H. Frei, Zurich, Switzerland) were used in the present study: virgin females from the strain ORR/ORR; flr^3/ In (3LR) TM3, ri p^p sep l(3)89Aa bx^34e e Bd^S were mated with mwh/mwh males. The ORR strain has chromosomes 1 and 2 from a DDT-resistant Oregon line, which are characterized by constitutively over-expressed CYP450 genes. The CYP 450 enzymes play the main role in the bioactivation of xenobiotics, as well as natural products including phytochemicals. Thus, the use of this high-bioactivation strain of D. melanogaster facilitates the detection of promutagens of numerous classes of compounds. The markers mwh (multiple wing hairs) and flr^3 (misshapen, flare-like hairs) are recessive wing-hair mutations located on the third chromosome at 0.3 and 38.8 respectively.
Eggs from the crosses were collected over 10 h periods. Progeny were raised on the Instant Drosophila Medium (Sigma Chemical Co., St. Louis, MO, USA) at 25 °C. Two schedules of the larvae treatment were applied. Firstly, the crossed flies were permitted to lay eggs for 10 h in vials containing medium prepared with 5,8-DHC solution. Thus, the exposure duration was about 120 h (i.e., evolutionary period from fly egg till case-worm). According to the second schedule, the 72 ± 5 h-old larvae were exposed to 5,8-DHC by adding test solution to the surface of the medium and were fed on this medium for the rest of their development, during approximately 48 h. 5,8-DHC was dissolved in ethanol and then diluted with distilled water to the desired concentration, with the final ethanol concentration 5% v/v. The solutions were always prepared immediately before use. Solvent controls were included in all treatments. Methyl methanesulfonate was included in the assay as a positive control. Trans-heterozygous (mwh flr^+ / mwh^+ flr^3) flies were collected and stored in a 70% ethanol. The wings of adult flies were mounted on glass slides in Faure’s solution, coded and scored at 400× magnification (Nikon E200) for the presence of single (mwh or flr^3 phenotype) or twin (adjacent mwh and flr^3 clones) spots. The spots were recorded according to standard procedures. No less than 40 wings were analysed per each experimental point. Two repeated experiments were carried out.

[3] = test solution 0.1%, exposure duration 48 h
[4] = test solution 0.1%, exposure duration 120 h
[5] = test solution 0.25%, exposure duration 48 h
[6] = test solution 0.25%, exposure duration 120 h
[7] = test solution 0.5%, exposure duration 48 h
[8] = test solution 0.5%, exposure duration 120 h

For `O=c1ccc2c(O)ccc(O)c2o1` [5,8-DHC, 5,8-Dihydroxycoumarin], the “content of total phenols (TPC)” value [1] was 581.0 ± 0.0 mg gallic acid equivalents (GAE) in 1 g, the large single spots ([2]; 0.5% 5,8-DHC, 120 h of treatment) was 0.10 spots per wing and the “increase in the number of somatic mutations” value ([2]; 48 h treatment) was “no statistically significant increase”. For the same molecule, the “genotoxicity in SMART” value ([2]; 120 h treatment) was “slight genotoxicity”, the “frequency of twin spots” value ([2]; range over concentrations) was 0–0.04 spots per wing and the “Spots/wing (±S.E.M.)” value [2, 3] was 0.27 ± 0.04 spots/wing. The “Wings with spots (% ± S.E.M.)” value [2, 3] was 26.8 ± 4.5%, the “Spots/wing (±S.E.M.)” value [2, 4] was 0.25 ± 0.04 ^a spots/wing and the “Wings with spots (% ± S.E.M.)” value [2, 4] was 22.4 ± 4.2%. For the same molecule, the “Spots/wing (±S.E.M.)” value [2, 5] was 0.22 ± 0.04 spots/wing, the “Wings with spots (% ± S.E.M.)” value [2, 5] was 21.1 ± 4.3% and the “Spots/wing (±S.E.M.)” value [2, 6] was 0.30 ± 0.04 ^a spots/wing. The “Wings with spots (% ± S.E.M.)” value [2, 6] was 27.1 ± 4.5^a %, the “Spots/wing (±S.E.M.)” value [2, 7] was 0.27 ± 0.04 spots/wing and the “Wings with spots (% ± S.E.M.)” value [2, 7] was 25.0 ± 4.4%. For the same molecule, the “Spots/wing (±S.E.M.)” value [2, 8] was 0.32 ± 0.04 ^a spots/wing and the “Wings with spots (% ± S.E.M.)” value [2, 8] was 28.9 ± 4.6^a %.
